Assay results as given in US20080200454A1, “CARBON-LINKED TETRAHYDRO-PYRAZOLO-PYRIDINE MODULATORS OF CATHEPSIN S” (priority 2007, published 2008).
Read-outs that look alike come from different tables or passages of the source.

Biological target: Recombinant human cathepsin S (CatS) (Homo sapiens, UniProt P25774)
Experiment: Recombinant human cathepsin S (CatS) inhibition assay, fluorogenic substrate Z-Valine-Valine-Arginine-AMC;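 further: Baculovirus-expressed CatS in pH 5.0 sodium acetate buffer with DTT and NaCl, fluorescence read each minute over 20 min, inhibition derived from rate slope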

Chain of Recombinant human cathepsin S (CatS) (P25774 115-331): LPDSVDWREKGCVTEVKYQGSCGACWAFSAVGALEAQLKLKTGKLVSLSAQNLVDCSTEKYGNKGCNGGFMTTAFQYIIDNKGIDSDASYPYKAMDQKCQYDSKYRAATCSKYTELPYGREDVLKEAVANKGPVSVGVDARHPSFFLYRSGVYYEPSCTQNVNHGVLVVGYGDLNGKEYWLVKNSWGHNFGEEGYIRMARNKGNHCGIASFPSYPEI

Compound	IC50	IC50 (CatS IC50)
Cc1ccccc1CCc1cc(-c2nn(CCCN3CCOCC3)c3c2CN(S(C)(=O)=O)CC3)ccc1Cl [Example 60, 3-[4-Chloro-3-(2-o-tolyl-ethyl)-phenyl]-5-methanesulfonyl-1-(3-morpholin-4-yl-propyl)-4,5,6,7-tetrahydro-1H-pyrazolo[4,3-c]pyridine]	880 nM	
CS(=O)(=O)N1CCc2c(c(-c3ccc(Cl)c(CCc4ccc(CO)cc4)c3)nn2CCCN2CCOCC2)C1 [Example 61, [4-(2-{2-Chloro-5-[5-methanesulfonyl-1-(3-morpholin-4-yl-propyl)-4,5,6,7-tetrahydro-1H-pyrazolo[4,3-c]pyridin-3-yl]-phenyl}-ethyl)-phenyl]-methanol]	200 nM	
CS(=O)(=O)N1CCc2c(c(-c3ccc(Cl)c(CCCNC(=O)c4ccccc4)c3)nn2CCCN2CCOCC2)C1 [Example 64, N-(3-{2-Chloro-5-[5-methanesulfonyl-1-(3-morpholin-4-yl-propyl)-4,5,6,7-tetrahydro-1H-pyrazolo[4,3-c]pyridin-3-yl]-phenyl}-propyl)-benzamide]	5400 nM	
CS(=O)(=O)N1CCc2c(c(-c3ccc(Cl)c(CCCNS(=O)(=O)c4ccccc4)c3)nn2CCCN2CCOCC2)C1 [Example 65, N-(3-{2-Chloro-5-[5-methanesulfonyl-1-(3-morpholin-4-yl-propyl)-4,5,6,7-tetrahydro-1H-pyrazolo[4,3-c]pyridin-3-yl]-phenyl}-propyl)-benzenesulfonamide]	1070 nM	
CC(=O)NCc1ccc(C#Cc2cc(-c3nn(CCCN4CCOCC4)c4c3CN(S(C)(=O)=O)CC4)ccc2Cl)cc1 [Example 72, N-(4-{2-Chloro-5-[5-methanesulfonyl-1-(3-morpholin-4-yl-propyl)-4,5,6,7-tetrahydro-1H-pyrazolo[4,3-c]pyridin-3-yl]-phenylethynyl}-benzyl)-acetamide]	490 nM	
CS(=O)(=O)N1CCc2c(c(-c3ccc(Cl)c(C#Cc4ccc(CNC(=O)c5ccccc5)cc4)c3)nn2CCCN2CCOCC2)C1 [Example 73, N-(4-{2-Chloro-5-[5-methanesulfonyl-1-(3-morpholin-4-yl-propyl)-4,5,6,7-tetrahydro-1H-pyrazolo[4,3-c]pyridin-3-yl]-phenylethynyl}-benzyl)-benzamide]	350 nM	
CS(=O)(=O)N1CCc2c(c(-c3ccc(Cl)c(C#Cc4ccc(CNCc5ccccc5)cc4)c3)nn2CCCN2CCOCC2)C1 [Example 74, Benzyl-(4-{2-chloro-5-[5-methanesulfonyl-1-(3-morpholin-4-yl-propyl)-4,5,6,7-tetrahydro-1H-pyrazolo[4,3-c]pyridin-3-yl]-phenylethynyl}-benzyl)-amine]	430 nM	
CN(Cc1ccccc1)Cc1ccc(C#Cc2cc(-c3nn(CCCN4CCOCC4)c4c3CN(S(C)(=O)=O)CC4)ccc2Cl)cc1 [Example 77, Benzyl-(4-{2-chloro-5-[5-methanesulfonyl-1-(3-morpholin-4-yl-propyl)-4,5,6,7-tetrahydro-1H-pyrazolo[4,3-c]pyridin-3-yl]-phenylethynyl}-benzyl)-methyl-amine]	640 nM	
CS(=O)(=O)N1CCc2c(c(-c3ccc(Cl)c(C#Cc4ccc(CN5CCCC5)cc4)c3)nn2CCCN2CCOCC2)C1 [Example 78, 3-[4-Chloro-3-(4-pyrrolidin-1-ylmethyl-phenylethynyl)-phenyl]-5-methanesulfonyl-1-(3-morpholin-4-yl-propyl)-4,5,6,7-tetrahydro-1H-pyrazolo[4,3-c]pyridine]		1400 nM
CS(=O)(=O)N1CCc2c(c(-c3ccc(Cl)c(C#Cc4ccc(CN5CCCCC5)cc4)c3)nn2CCCN2CCOCC2)C1 [Example 79, 3-[4-Chloro-3-(4-piperidin-1-ylmethyl-phenylethynyl)-phenyl]-5-methanesulfonyl-1-(3-morpholin-4-yl-propyl)-4,5,6,7-tetrahydro-1H-pyrazolo[4,3-c]pyridine]		1500 nM
CS(=O)(=O)N1CCc2c(c(-c3ccc(Cl)c(CCCNS(=O)(=O)Cc4ccccc4)c3)nn2CCCN2CCOCC2)C1 [Example 81, N-(3-{2-Chloro-5-[5-methanesulfonyl-1-(3-morpholin-4-yl-propyl)-4,5,6,7-tetrahydro-1H-pyrazolo[4,3-c]pyridin-3-yl]-phenyl}-propyl)-C-phenyl-methanesulfonamide]	5470 nM	
CS(=O)(=O)N1CCc2c(c(-c3ccc(Cl)c(CCCNS(=O)(=O)c4ccc(Cl)cc4)c3)nn2CCCN2CCOCC2)C1 [Example 83, 4-Chloro-N-(3-{2-chloro-5-[5-methanesulfonyl-1-(3-morpholin-4-yl-propyl)-4,5,6,7-tetrahydro-1H-pyrazolo[4,3-c]pyridin-3-yl]-phenyl}-propyl)-benzenesulfonamide]	7100 nM	

Continued by falling IC50, values first:

IC50	Compound	IC50 (CatS IC50)
13000 nM	CN(C)S(=O)(=O)NCCCc1cc(-c2nn(CCCN3CCOCC3)c3c2CN(S(C)(=O)=O)CC3)ccc1Cl [Example 86]	
9930 nM	CS(=O)(=O)NCCCc1cc(-c2nn(CCCN3CCOCC3)c3c2CN(S(C)(=O)=O)CC3)ccc1Cl [Example 80, N-(3-{2-Chloro-5-[5-methanesulfonyl-1-(3-morpholin-4-yl-propyl)-4,5,6,7-tetrahydro-1H-pyrazolo[4,3-c]pyridin-3-yl]-phenyl}-propyl)-methanesulfonamide]	
8930 nM	COc1ccc(S(=O)(=O)NCCCc2cc(-c3nn(CCCN4CCOCC4)c4c3CN(S(C)(=O)=O)CC4)ccc2Cl)cc1 [Example 85, N-(3-{2-Chloro-5-[5-methanesulfonyl-1-(3-morpholin-4-yl-propyl)-4,5,6,7-tetrahydro-1H-pyrazolo[4,3-c]pyridin-3-yl]-phenyl}-propyl)-4-methoxy-benzenesulfonamide]	
8100 nM	Cc1ccc(S(=O)(=O)NCCCc2cc(-c3nn(CCCN4CCOCC4)c4c3CN(S(C)(=O)=O)CC4)ccc2Cl)cc1 [Example 84, N-(3-{2-Chloro-5-[5-methanesulfonyl-1-(3-morpholin-4-yl-propyl)-4,5,6,7-tetrahydro-1H-pyrazolo[4,3-c]pyridin-3-yl]-phenyl}-propyl)-4-methyl-benzenesulfonamide]	
6100 nM	CS(=O)(=O)N1CCc2c(c(-c3ccc(Cl)c(CCCNS(=O)(=O)c4ccc(Cl)c(Cl)c4)c3)nn2CCCN2CCOCC2)C1 [Example 82, 3,4-Dichloro-N-(3-{2-chloro-5-[5-methanesulfonyl-1-(3-morpholin-4-yl-propyl)-4,5,6,7-tetrahydro-1H-pyrazolo[4,3-c]pyridin-3-yl]-phenyl}-propyl)-benzenesulfonamide]	
3050 nM	CS(=O)(=O)N1CCc2c(c(-c3ccc(Cl)c(/C=C\c4ccccc4)c3)nn2CCCN2CCOCC2)C1 [Example 67, 3-(4-Chloro-3-Z-styryl-phenyl)-5-methanesulfonyl-1-(3-morpholin-4-yl-propyl)-4,5,6,7-tetrahydro-1H-pyrazolo[4,3-c]pyridine]	
2850 nM	CS(=O)(=O)N1CCc2c(c(-c3ccc(Cl)c(/C=C/c4ccccc4)c3)nn2CCCN2CCOCC2)C1 [Example 68, 3-(4-Chloro-3-E-styryl-phenyl)-5-methanesulfonyl-1-(3-morpholin-4-yl-propyl)-4,5,6,7-tetrahydro-1H-pyrazolo[4,3-c]pyridine]	
1400 nM	CS(=O)(=O)N1CCc2c(c(-c3ccc(Cl)c(CCCc4ccccc4)c3)nn2CCCN2CCOCC2)C1 [Example 63, 3-[4-Chloro-3-(3-phenyl-propyl)-phenyl]-5-methanesulfonyl-1-(3-morpholin-4-yl-propyl)-4,5,6,7-tetrahydro-1H-pyrazolo[4,3-c]pyridine]	
1230 nM	CS(=O)(=O)N1CCc2c(c(-c3ccc(Cl)c(CCc4ccccc4)c3)nn2CCCN2CCOCC2)C1 [Example 62, 3-(4-Chloro-3-phenethyl-phenyl)-5-methanesulfonyl-1-(3-morpholin-4-yl-propyl)-4,5,6,7-tetrahydro-1H-pyrazolo[4,3-c]pyridine]	
530 nM	CS(=O)(=O)N1CCc2c(c(-c3ccc(Cl)c(C#Cc4ccc(CN)cc4)c3)nn2CCCN2CCOCC2)C1 [Example 69, 4-{2-Chloro-5-[5-methanesulfonyl-1-(3-morpholin-4-yl-propyl)-4,5,6,7-tetrahydro-1H-pyrazolo[4,3-c]pyridin-3-yl]-phenylethynyl}-benzylamine]	
350 nM	Cc1ccc(CNCc2ccc(C#Cc3cc(-c4nn(CCCN5CCOCC5)c5c4CN(S(C)(=O)=O)CC5)ccc3Cl)cc2)cc1 [Example 75, (4-{2-Chloro-5-[5-methanesulfonyl-1-(3-morpholin-4-yl-propyl)-4,5,6,7-tetrahydro-1H-pyrazolo[4,3-c]pyridin-3-yl]-phenylethynyl]-benzyl)-(4-methyl-benzyl)-amine]	
270 nM	CS(=O)(=O)NCc1ccc(C#Cc2cc(-c3nn(CCCN4CCOCC4)c4c3CN(S(C)(=O)=O)CC4)ccc2Cl)cc1 [Example 70, N-(4-{2-Chloro-5-[5-methanesulfonyl-1-(3-morpholin-4-yl-propyl)-4,5,6,7-tetrahydro-1H-pyrazolo[4,3-c]pyridin-3-yl]-phenylethynyl}-benzyl)-methanesulfonamide]	
250 nM	CC(=O)Nc1ccc(C#Cc2cc(-c3nn(CCCN4CCOCC4)c4c3CN(S(C)(=O)=O)CC4)ccc2Cl)cc1 [Example 66, N-(4-{2-Chloro-5-[5-methanesulfonyl-1-(3-morpholin-4-yl-propyl)-4,5,6,7-tetrahydro-1H-pyrazolo[4,3-c]pyridin-3-yl]-phenylethynyl}-phenyl)-acetamide]	
240 nM	CS(=O)(=O)N1CCc2c(c(-c3ccc(Cl)c(C#Cc4ccc(CNCc5ccc(Cl)cc5)cc4)c3)nn2CCCN2CCOCC2)C1 [Example 76, (4-Chloro-benzyl)-(4-{2-chloro-5-[5-methanesulfonyl-1-(3-morpholin-4-yl-propyl)-4,5,6,7-tetrahydro-1H-pyrazolo[4,3-c]pyridin-3-yl]-phenylethynyl}-benzyl)-amine]	
170 nM	CS(=O)(=O)N1CCc2c(c(-c3ccc(Cl)c(C#Cc4ccc(CNS(=O)(=O)c5ccccc5)cc4)c3)nn2CCCN2CCOCC2)C1 [Example 71, N-(4-{2-Chloro-5-[5-methanesulfonyl-1-(3-morpholin-4-yl-propyl)-4,5,6,7-tetrahydro-1H-pyrazolo[4,3-c]pyridin-3-yl]-phenylethynyl}-benzyl)-benzenesulfonamide]	
